Test results taken from patent publication US20250186379A1, “METHODS AND AGENTS FOR DECREASING INSULIN RESISTANCE” (Whitehead Institute for Biomedical Research, priority 2021, published 2025).
“Also recorded” adds a separate entry of the source.

Tested on: IR condensates
Experiment: Immunofluorescence for IR in human liver spheroids (primary human hepatocytes)
Format: cell-based
Settings: 3 nM insulin 10 min
Procedure: For human liver spheroid experiments, primary human hepatocytes from a donor (BioIVT; lot #SMC) were used. Cells were thawed in Cryopreserved Hepatocyte Recovery Media (CHRM, ThermoFisher), spun down at 100 g for 8 min, and resuspended in seeding medium (William's E with 5.5 mM glucose, 2 mM GlutaMax, 15 mM HEPES, 5% FBS, 1% Pen/Strep, 100 nM hydrocortisone, and insulin 200 pM or 800 pM corresponding to the proper experimental group). Spheroids were formed using custom alginate microwells. In brief, 120,000 cells were seeded per well and spun at 50 g for 2 min to seed microwells, and cultured in a volume of 300 uL seeding medium. After 24 hours, cells were switched to maintenance media for the remainder of the experiment. This maintenance media was composed of William's E plus 6.25 μg/ml transferrin, 6.25 ng/ml selenium, 0.125% fatty acid-free BSA, 20 μM linoleic acid, 5.5 mM glucose, 2 mM GlutaMax, 15 mM HEPES, 0.5% Pen/Strep, and 100 nM hydrocortisone. Insulin was supplemented with concentrations adjusted to mimic healthy and disease-inducing states, either 200 pM for physiological or 800 pM for pathologic insulin levels. Media was exchanged every 48 hours throughout the experiment. […]

insulin: insulin (Sigma Aldrich, I9278-5ML) used for acute stimulation and chronic physiological or pathological exposure
IR signal intensity in cytoplasmic and nuclear condensates/puncta (insulin sensitive human liver spheroids): leads to an increase in IR signal intensity in cytoplasmic and nuclear condensates; also recorded: produced an increase in IR signal intensity in cytoplasmic and nuclear puncta

CN(C)C(=N)N=C(N)N [metformin, reference compound]
IR signal in cytoplasmic and nuclear condensates/puncta (insulin resistant human liver spheroids + metformin): partially rescued
